# Measured values taken from article PMC9154192 (PLoS Biology, 2022).
# Like-named read-outs stand apart in the source and are kept apart here.
# Conditions: for % MNPCE (Mean ± S.D.) / % PCE (Mean ± S.D.): 24 hours after dosing
# Experimental: Genotoxicity studies for PP2S were performed according to the ICH (International conference on harmonization) harmonized tripartite guideline, S2(R1). Regarding previous reports, the bacterial reverse mutation test, chromosomal abnormality test, and mouse bone marrow micronucleus test were performed with slight modifications.
smiles,measurement,setting,value
"CCCCOc1ccc2cc(CN3C(=O)CC[C@H]3C(=O)OC)c3cc(OC)c(OC)cc3c2c1 [PP2S, Methyl (S)-1-((3-butoxy-6,7-dimethoxyphenanthren-9-yl)methyl)-5-oxopyrrolidine-2-carboxylate]",Mean body weights ± S.D.,"500 mg/kg P.O., 0 day",35.9 ± 1.16 g
same,Mean body weights ± S.D.,"500 mg/kg P.O., 1 day",35.5 ± 1.48 g
same,% MNPCE (Mean ± S.D.),500 mg/kg P.O.,0.055 ± 0.037%
same,% PCE (Mean ± S.D.),500 mg/kg P.O.,30.5 ± 2.16%
same,Mean body weights ± S.D.,"1000 mg/kg P.O., 0 day",35.9 ± 1.07 g
same,Mean body weights ± S.D.,"1000 mg/kg P.O., 1 day",36.1 ± 1.42 g
same,% MNPCE (Mean ± S.D.),1000 mg/kg P.O.,0.060 ± 0.034%
same,% PCE (Mean ± S.D.),1000 mg/kg P.O.,31.8 ± 2.49%
same,Mean body weights ± S.D.,"2000 mg/kg P.O., 0 day",35.9 ± 1.14 g
same,Mean body weights ± S.D.,"2000 mg/kg P.O., 1 day",34.9 ± 1.63 g
same,% MNPCE (Mean ± S.D.),2000 mg/kg P.O.,0.055 ± 0.021%
same,% PCE (Mean ± S.D.),2000 mg/kg P.O.,33.6 ± 1.67%
same,RPD (relative population doubling),"S9 mix +, Trt-Rec 6-18 hr, 125 µg/mL",69.4%
same,RPD (relative population doubling),"S9 mix +, Trt-Rec 6-18 hr, 250 µg/mL",67.4%
same,RPD (relative population doubling),"S9 mix -, Trt-Rec 6-18 hr, 125 µg/mL",78.8%
same,RPD (relative population doubling),"S9 mix -, Trt-Rec 6-18 hr, 250 µg/mL",74.3%
same,RPD (relative population doubling),"S9 mix -, Trt-Rec 24-0 hr, 125 µg/mL",46.9%
same,RPD (relative population doubling),"S9 mix -, Trt-Rec 24-0 hr, 250 µg/mL",38.6%
same,genotoxicity,bone marrow micronucleus formation test,did not show genotoxicity
